For 1 compound, Glucagon, GH and Insulin results are on record in patent US4133805A, “Cyclic undecapeptides related to somatostatin and intermediates therefor” (American Home Products Corporation, priority 1975, dated 1979).

Holding throughout (assay type): in vivo, Albino male rats
One test concerns glucagon. As to the kind of experiment: Test Procedure II: arginine-stimulated plasma glucagon in nembutal-treated rats. The method, then:
(§1) Albino male rats are arranged in three groups (nine rats/group) and injected i.p. with nembutal at 50 mg/kg. Fifteen minutes after the nembutal injection they are injected s.c. according to group with (a) test compound, typically 500-2000 μg/kg; (b) SRIF 200 μg/kg; or (c) physiological saline. Ten minutes later 0.5 ml. of arginine (300 mg/ml, pH 7.2) is injected into the heart. The rats are decapitated five minutes after receiving the arginine, and the blood is collected into Trasylol-EDTA. Appropriate aliquots are then assayed for growth hormone, glucagon and insulin. […] Comparisons between control and experimental values are statistically evaluated by the analysis of variants method and statistical significance (p) at 0.05 or lower is used as the index of activity.

For a further test, the system named is growth hormone. As to the kind of experiment: Test Procedure II: arginine-stimulated plasma growth hormone in nembutal-treated rats. To be noted: p = <0.01. The method, then:
as §1

The subject of the next test is insulin. As to the kind of experiment: Test Procedure II: arginine-stimulated plasma insulin in nembutal-treated rats. The method, then: as §1

As for `C[C@H](N)C(=O)NCC(=O)N[C@H]1CSSC[C@@H](C(=O)O)NC(=O)[C@H](CO)NC(=O)[C@H]([C@@H](C)O)NC(=O)[C@H](Cc2ccccc2)NC(=O)[C@H]([C@@H](C)O)NC(=O)[C@H](CCCCN)NC(=O)[C@H](Cc2c[nH]c3ccccc23)NC(=O)[C@H](Cc2ccccc2)NC(=O)[C@H](Cc2ccccc2)NC(=O)[C@H](CC(N)=O)NC(=O)[C@H](CCCCN)NC1=O` [SRIF, somatostatin], the Glucagon in the test on glucagon (200 μg/kg s.c., control 62 ± 8, p = <0.01) turned out to be 13 ± 4 pg/mL; in the test on glucagon (0.2 mg/kg s.c., control 20 ± 1, p = <0.05), 12 ± 3 pg/mL. The GH in the test with growth hormone (10 μg/kg s.c., control 543 ± 86) came out at 241 ± 15 ng/mL; in the test with growth hormone (20 μg/kg s.c., control 619 ± 103), 232 ± 87 ng/mL; in the test with growth hormone (0.2 mg/kg s.c., control 287 ± 53), 65 ± 16 ng/mL. In addition, the Insulin in the test on insulin (200 μg/kg s.c., control 167 ± 12, p = <0.01) is on record as 117 ± 12 μ units/ml; in the test on insulin (0.2 mg/kg s.c., control 151 ± 15, p = <0.05) it was 111 ± 10 μ units/ml.
